Like-named read-outs stand apart in the source and are kept apart here.
What was measured:
[1] = tested on: 2-HG in HT1080 tumor tissues; assay: Detection of 2-HG in HT1080 tumor tissues of nude mice; format: in vivo; settings: Mus musculus, HT-1080, sc, subcutaneous HT1080, 20 mg/kg
Experimental: Nude mice were inoculated subcutaneously with 1×10^6 HT1080 cells. When the tumor volume reached 100-150 mm^3, the mice were randomly grouped into solvent control group and compounds 1, 70, 79, 85, 96, 139, 157 and LY-3410738 20 mg/kg groups. The tumors were collected three days and seven days after continuous administration, weighed, digested with a digestion solution and then homogenized. The level of 2-HG in the tumor tissues were determined by LC-MS-MS. The percentage inhibition of compounds on 2-HG in tumor tissues was calculated as compared with the control.

IDH R132C = biological target: T1, IDH R132C (Homo sapiens, UniProt O75874, R132C); assay: Detection of 2-HG in supernatant of U87-IDH R132C cells; format: cell-based; settings: 72 h, LC-MS-MS, vs control; for inhibition at 0.001 µM: 1 nM compound, read-out: Inhibition rate of compounds on 2-HG in the supernatant of U87-IDH R132C cells, 1 nM; for inhibition at 0.01 µM: 10 nM compound, read-out: Inhibition rate of compounds on 2-HG in the supernatant of U87-IDH R132C cells, 10 nM; for inhibition at 0.1 µM: 100 nM compound, read-out: Inhibition rate of compounds on 2-HG in the supernatant of U87-IDH R132C cells, 100 nM
T1 construct: expressed in transfected cells; host or cells: U87 cells
T1 sequence (O75874 whole entry R132C): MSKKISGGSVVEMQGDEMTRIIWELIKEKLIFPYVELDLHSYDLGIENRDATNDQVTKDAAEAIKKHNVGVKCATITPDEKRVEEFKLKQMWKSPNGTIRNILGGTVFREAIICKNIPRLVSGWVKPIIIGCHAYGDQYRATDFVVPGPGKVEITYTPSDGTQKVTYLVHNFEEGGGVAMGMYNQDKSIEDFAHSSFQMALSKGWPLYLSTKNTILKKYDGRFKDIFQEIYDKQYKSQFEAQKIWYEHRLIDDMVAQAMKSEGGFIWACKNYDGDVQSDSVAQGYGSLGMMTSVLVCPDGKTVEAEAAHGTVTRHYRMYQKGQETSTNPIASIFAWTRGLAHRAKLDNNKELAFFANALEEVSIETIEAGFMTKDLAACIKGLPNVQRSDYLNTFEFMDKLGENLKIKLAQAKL
Experimental: U87 cells overexpressing the IDH R132C mutation were seeded in a 48-well plate at 50,000 cells/well. After the cells were incubated overnight for adhesion, the supernatant was removed. The cell culture media containing serially diluted compounds were added, and the cells were incubated for 72 h. After 72 h, the cultures were collected and diluted 10-fold with water, and acetonitrile was added to extract the metabolites. The 2-HG content in the cultures was analyzed by LC-MS-MS, and the percentage inhibition of compounds on 2-HG in the supernatant was calculated as compared with the control.

[2] = 72 h, three days of continuous administration, read-out: Inhibition rate of compounds on 2-HG in HT1080 tumor tissues, 3 days
[3] = 168 h, seven days of continuous administration, read-out: Inhibition rate of compounds on 2-HG in HT1080 tumor tissues, 7 days

Row | inhibition at 0.001 µM (IDH R132C) | inhibition at 0.01 µM (IDH R132C) | inhibition at 0.1 µM (IDH R132C) | SMILES | inhibition in vivo at 20 mg/kg [1, 2] | inhibition in vivo at 20 mg/kg [1, 3]
1 | 30 to 60% | > 90% | > 90% | C=CC(=O)N1CC2(C1)CN(C(CC1CC1)c1ccc([C@H](C)Nc3ncc4c(n3)N(CC)C(=O)OC4)cc1)C2 (stereo partly shown) [Compound 1] | 54 ± 18% | 95 ± 0.5%
2 | 60 to 90% | > 90% | > 90% | C=CC(=O)N1CCN(C(CC23CC(C2)C3)c2ccc([C@H](C)Nc3ncc4c(n3)N(CC)C(=O)NC4)cc2)CC1 (stereo partly shown) [Compound 70] | 62 ± 8% | 92 ± 5%
3 | 30 to 60% | 60 to 90% | > 90% | C=CC(=O)N1CCN(C(CC2CC2)c2ccc([C@H](C)Nc3ncc4c(n3)N(C(C)C)C(=O)NC4)cc2)CC1 (stereo partly shown) [Compound 79] | 50 ± 3% | 97 ± 1%
4 | 60 to 90% | > 90% | > 90% | C=CC(=O)N1CCN(C(CC2CC2)c2ccc([C@H](C)Nc3ncc4cnc(=O)n(C(C)C)c4n3)cc2)CC1 (stereo partly drawn) [Compound 85, 7-(((1S)-1-(4-(1-(4-acryloylpiperazin-1-yl)-2-cyclopropylethyl)phenyl)ethyl)amino)-1-isopropylpyrimidine[4,5-d]pyrimidine-2(1H)-one] | 57 ± 6% | 94 ± 3%
5 | – | – | – | C=CC(=O)NC1CCN(C(CC2CC2)c2ccc([C@H](C)Nc3ncc4cnc(=O)n(C(C)C)c4n3)cc2)CC1 (stereo partly shown) [Compound 96] | 29 ± 38% | 78 ± 4%
6 | – | – | – | C=CC(=O)N1CCN(C(CC2CCC2)c2ccc([C@H](C)Nc3ncc4c(n3)N(CC)C(=O)OC4)cc2)CC1 (stereo partly drawn) [Compound 139, 7-(((1S)-1-(4-(1-(4-acryloylpiperazin-1-yl)-2-cyclobutylethyl)-phenyl)ethyl)amino)-1-ethyl-1,4-dihydro-2H-pyrimido[4,5-d][1,3]oxazin-2-one] | 57 ± 1.8% | 99 ± 0.4%
7 | 60 to 90% | > 90% | > 90% | C=CC(=O)N1CCN(C(CC23CC(C2)C3)c2ccc([C@H](C)Nc3ncc4c(n3)N(CC)C(=O)OC4)cc2)CC1 (stereo partly shown) [Compound 157] | 60 ± 8% | 90 ± 7%
8 | 30 to 60% | > 90% | > 90% | C=CC(=O)N1CCN([C@@H](CC2CC2)c2ccc([C@H](C)Nc3ncc4c(n3)N(CC)C(=O)OC4)cc2)CC1 [LY-3410738, reference compound] | 58 ± 11% | 88 ± 12%

— patent US12559505B2, “IDH mutant inhibitor and use thereof” (WIGEN BIOMEDICINE TECHNOLOGY (SHANGHAI) CO., LTD., priority 2020, dated 2026)
